Test results: patent US20250388604A1, “Compounds and Their Use as PDE4 Activators” (Mironid Limited, priority 2022, published 2025)

test system: m-IMCD3 cells; assay: Inhibition of PGE2-stimulated in vitro cyst formation in m-IMCD3 cells; type: cell-based, mouse; details: Mus musculus, mIMCD3, 144 h, 3 μM; mean cyst area, 100% for (DMSO + PGE2) and 0% for DMSO control; 6 days of culture; read-out: % Cyst area after incubation with 3 μM test compound
Protocol: HEK 293 and MDCK cells (Public Health England, Cell Culture Collections) were maintained in Dulbecco's Modified Eagle's Medium (DMEM) supplemented with 10% (v/v) fetal bovine serum (FBS) (Seralab), 2 mM L-glutamine and 100 U/mL penicillin streptomycin cocktail (ThermoFisher); termed complete media. Clonal HEK 293 cell lines were maintained in complete media supplemented with 0.6 mg/ml G418 (Enzo Life Sciences). Mouse inner medullary collecting duct (m-IMCD3) cells [American Type Culture Collection (ATCC)] were maintained in media consisting of DMEM/Hams F-12 50/50 Mix (DMEM F12; Corning) supplemented with penicillin streptomycin cocktail (100 U/mL) and FBS (10% v/v) (DMEM F12-10% FBS).
The mouse Inner Medullary Collecting Duct cell line (m-IMCD3) spontaneously forms cystic spheroids in 3D culture with a Type 1 collagen/Matrigel extracellular matrix. This process can be stimulated with agents which raise intracellular cAMP and is used as an in vitro model for the formation of cystic structures in the kidneys of patients with ADPKD.
Rat Collagen I (Fisher Scientific) is prepared on ice by neutralising with 1M NaOH and diluting with a 2× volume of DMEM/F12+10% FBS. This is mixed 1:1.1 with ice cold Matrigel (Corning) for coating plates (coating mix), and 1:0.93 with Matrigel for cell plating (plating mix).
The assay is conducted in the wells of a 96-well plate culture dish using a total volume of 130 μL of collagen/Matrigel/DMEM F12-10% FBS suspension in growth media for each matrix plug per individual well. Initially, 30 μL of collagen/Matrigel/DMEM F12-10% FBS (coating mix) is added into the well of a 96 well plate and the collagen is set to a gel by incubating at 37° C. for at least 15 minutes. A second layer of 100 μL collagen/Matrigel suspension (plating mix) containing m-IMCD3 cells (2.75×10^6 m-IMCD3 cells per 96-well plate) is layered over the coating mix and the collagen/Matrigel/cell mix again set to a gel by incubating at 37° C. Cell cultures are maintained at 37° C. in an atmosphere of 5% CO2, 95% air.
Between 18 and 24 h after plating, test compound(s) as DMSO stock solutions [0.1% (v/v) final DMSO concentration] and PGE2 (100 nM final concentration) in DMEM F12-10% FBS are added in quadruplicate wells per condition. Media, together with the test compound and PGE2 are replenished after 2 or 3 days. After 6 days of culture z stack images of the wells are captured using the Nikon Eclipse Ti2-E microscope. Nikon General Analysis software is used to measure the following parameters in each well: the mean cyst area, the number of cysts, and the total cyst area.
PDE4 long form activators inhibited in vitro cyst formation in m-IMCD3 cells. Data are shown in Table 4 as mean cyst area (%), compared to 100% for (DMSO+PGE2) and 0% for DMSO control.

Compound	activity at 3 µM
COCCOc1ccccc1OCC(=O)N1CCc2nc(N3C4CCC3CNC4)sc2C1 [Example 129, 1-(2-(3,8-diazabicyclo[3.2.1]octan-8-yl)-6,7-dihydrothiazolo[5,4-c]pyridin-5(4H)-yl)-2-(2-(2-methoxyethoxy)phenoxy)ethan-1-one]	3%

same assay, conditions: Mus musculus, mIMCD3, 144 h, 10 μM; mean cyst area, 100% for (DMSO + PGE2) and 0% for DMSO control; 6 days of culture; read-out: % Cyst area after incubation with 10 μM test compound

Compound	activity at 10 µM
CN1CC2CCC(C1)N2c1nc2c(s1)CN(C(=O)CC1CCCC1)CC2(C)C [Example 102, 2-cyclopentyl-1-(7,7-dimethyl-2-(3-methyl-3,8-diazabicyclo[3.2.1]octan-8-yl)-6,7-dihydrothiazolo[5,4-c]pyridin-5(4H)-yl)ethan-1-one]	-3%
CN1CC2CCC(C1)N2c1nc2c(s1)CN(C(=O)CC1CCC(F)(F)CC1)CC2(C)C [Example 103, 2-(4,4-difluorocyclohexyl)-1-(7,7-dimethyl-2-(3-methyl-3,8-diazabicyclo[3.2.1]octan-8-yl)-6,7-dihydrothiazolo[5,4-c]pyridin-5(4H)-yl)ethan-1-one]	-1%
CN1CCN(c2nc3c(s2)CN(C(=O)CC2CCC(F)(F)CC2)CC3(C)C)CC1 [Example 104, 2-(4,4-difluorocyclohexyl)-1-(7,7-dimethyl-2-(4-methylpiperazin-1-yl)-6,7-dihydrothiazolo[5,4-c]pyridin-5(4H)-yl)ethan-1-one]	0%
O=S(=O)(CC1CCCC1)N1CCc2nc(N3C4CCC3CNC4)sc2C1 [Example 107, 2-(3,8-diazabicyclo[3.2.1]octan-8-yl)-5-((cyclopentylmethyl)sulfonyl)-4,5,6,7-tetrahydrothiazolo[5,4-c]pyridine]	-16%
O=C(CC1CCCC1)N1CCc2nc(N3CCNCC3)sc2C1 [Example 109, 2-cyclopentyl-1-(2-(piperazin-1-yl)-6,7-dihydrothiazolo[5,4-c]pyridin-5(4H)-yl)ethan-1-one]	6%
O=C(COc1ccc(F)cc1)N1CCc2nc(N3CCNCC3)sc2C1 [Example 110, 2-(4-fluorophenoxy)-1-(2-(piperazin-1-yl)-6,7-dihydrothiazolo[5,4-c]pyridin-5(4H)-yl)ethan-1-one]	-5%
O=C(CC1CCCC1)N1CCc2nc(N3CCN[C@H](CO)C3)sc2C1 [Example 116, (S)-2-cyclopentyl-1-(2-(3-(hydroxymethyl)piperazin-1-yl)-6,7-dihydrothiazolo[5,4-c]pyridin-5(4H)-yl)ethan-1-one]	55%
O=C(CC1CCCC1)N1CCc2nc(N3CCN[C@@H](CO)C3)sc2C1 [Example 117, (R)-2-cyclopentyl-1-(2-(3-(hydroxymethyl)piperazin-1-yl)-6,7-dihydrothiazolo[5,4-c]pyridin-5(4H)-yl)ethan-1-one]	1%
CC1(C)CC(CC(=O)N2CCc3nc(N4C5CCC4CNC5)sc3C2)C1 [Example 119, 1-(2-(3,8-diazabicyclo[3.2.1]octan-8-yl)-6,7-dihydrothiazolo[5,4-c]pyridin-5(4H)-yl)-2-(3,3-dimethylcyclobutyl)ethan-1-one]	-10%
CC1(C)CCCN1C(=O)N1CCc2nc(N3C4CCC3CNC4)sc2C1 [Example 120, (2-(3,8-diazabicyclo[3.2.1]octan-8-yl)-6,7-dihydrothiazolo[5,4-c]pyridin-5(4H)-yl)(2,2-dimethylpyrrolidin-1-yl)methanone]	2%
CC1(C)CCN(C(=O)N2CCc3nc(N4C5CCC4CNC5)sc3C2)C1 [Example 121, (2-(3,8-diazabicyclo[3.2.1]octan-8-yl)-6,7-dihydrothiazolo[5,4-c]pyridin-5(4H)-yl)(3,3-dimethylpyrrolidin-1-yl)methanone]	0%
O=C(N1CCc2nc(N3C4CCC3CNC4)sc2C1)N1CCC2(CCCC2)C1 [Example 122, (2-(3,8-diazabicyclo[3.2.1]octan-8-yl)-6,7-dihydrothiazolo[5,4-c]pyridin-5(4H)-yl)(2-azaspiro[4.4]nonan-2-yl)methanone]	-8%
O=C(N1CCc2nc(N3C4CCC3CNC4)sc2C1)N1CCC2(CCC2)C1 [Example 123, (2-(3,8-diazabicyclo[3.2.1]octan-8-yl)-6,7-dihydrothiazolo[5,4-c]pyridin-5(4H)-yl)(6-azaspiro[3.4]octan-6-yl)methanone]	-4%
CC1(NC(=O)N2CCc3nc(N4C5CCC4CNC5)sc3C2)CCC1 [Example 124, 2-(3,8-diazabicyclo[3.2.1]octan-8-yl)-N-(1-methylcyclobutyl)-6,7-dihydrothiazolo[5,4-c]pyridine-5(4H)-carboxamide]	-12%
CC1(NC(=O)N2CCc3nc(N4C5CCC4CNC5)sc3C2)CCCC1 [Example 125, 2-(3,8-diazabicyclo[3.2.1]octan-8-yl)-N-(1-methylcyclopentyl)-6,7-dihydrothiazolo[5,4-c]pyridine-5(4H)-carboxamide]	-11%
CC1(CC(=O)N2CCc3nc(N4C5CCC4CNC5)sc3C2)CCC1 [Example 130, 1-(2-(3,8-diazabicyclo[3.2.1]octan-8-yl)-6,7-dihydrothiazolo[5,4-c]pyridin-5(4H)-yl)-2-(1-methylcyclobutyl)ethan-1-one]	-5%
COC(C(=O)N1CCc2nc(N3C4CCC3CNC4)sc2C1)c1ccc(F)cc1 (stereo not drawn) [Example 131, 1-(2-(3,8-diazabicyclo[3.2.1]octan-8-yl)-6,7-dihydrothiazolo[5,4-c]pyridin-5(4H)-yl)-2-(4-fluorophenyl)-2-methoxyethan-1-one]	-9%
O=C(C(O)c1ccc(F)cc1)N1CCc2nc(N3C4CCC3CNC4)sc2C1 (stereo not drawn) [Example 132, 1-(2-(3,8-diazabicyclo[3.2.1]octan-8-yl)-6,7-dihydrothiazolo[5,4-c]pyridin-5(4H)-yl)-2-(4-fluorophenyl)-2-hydroxyethan-1-one]	-6%
O=C(C1CCCO1)N1CCc2nc(N3C4CCC3CNC4)sc2C1 (stereo not drawn) [Example 133, (2-(3,8-diazabicyclo[3.2.1]octan-8-yl)-6,7-dihydrothiazolo[5,4-c]pyridin-5(4H)-yl)(tetrahydrofuran-2-yl)methanone]	19%
COC1(CC(=O)N2CCc3nc(N4C5CCC4CNC5)sc3C2)CCCC1 [Example 134, 1-(2-(3,8-diazabicyclo[3.2.1]octan-8-yl)-6,7-dihydrothiazolo[5,4-c]pyridin-5(4H)-yl)-2-(1-methoxycyclopentyl)ethan-1-one]	-4%
COCC1(CC(=O)N2CCc3nc(N4C5CCC4CNC5)sc3C2)CCCC1 [Example 135, 1-(2-(3,8-diazabicyclo[3.2.1]octan-8-yl)-6,7-dihydrothiazolo[5,4-c]pyridin-5(4H)-yl)-2-(1-(methoxymethyl)cyclopentyl)ethan-1-one]	-6%
O=C(Cc1cnccn1)N1CCc2nc(N3C4CCC3CNC4)sc2C1 [Example 136, 1-(2-(3,8-diazabicyclo[3.2.1]octan-8-yl)-6,7-dihydrothiazolo[5,4-c]pyridin-5(4H)-yl)-2-(pyrazin-2-yl)ethan-1-one]	18%
O=C(CC1CCC(F)(F)C1)N1CCc2nc(N3C4CCC3CNC4)sc2C1 (stereo not drawn) [Example 137, 1-(2-(3,8-diazabicyclo[3.2.1]octan-8-yl)-6,7-dihydrothiazolo[5,4-c]pyridin-5(4H)-yl)-2-(3,3-difluorocyclopentyl)ethan-1-one]	-4%
